Data on 4 compounds can be found in patent US20240270762A1, “PENICILLIN-BINDING PROTEIN INHIBITORS” (priority 2021, published 2024).

One experiment has as its system A. baumannii CDC-0083. As to the kind of experiment: microbe, parasite or virus in culture. Conditions: Acinetobacter baumannii, CDC0083, read-out: MIC, A. baumannii CDC-0083. In kind it is cell-based.
Experiment [1] deals with P. aeruginosa (ΔmexAB-oprM). In words: Broth microdilution MIC in iron-depleted CAMHB (IDM). The experiment is classed as cell-based. As to conditions: Pseudomonas aeruginosa; iron-depleted CAMHB (IDM); […]; read-out: Minimum inhibitory concentration, P. aeruginosa ΔmexAB-oprM.
The next experiment deals with A. baumannii 1258916. As to the kind of experiment: microbe, parasite or virus in culture. In kind it is cell-based, Acinetobacter baumannii. As to conditions: Acinetobacter baumannii, 1258916, read-out: MIC, A. baumannii 1258916.
Another experiment relates to A. baumannii CDC-0036. In words: microbe, parasite or virus in culture. The experiment is classed as cell-based. Conditions: Acinetobacter baumannii, CDC0036, read-out: MIC, A. baumannii CDC-0036.
Experiment [2] deals with B. humptydooensis ATCC BAA-2767. As to the kind of experiment: microbe, parasite or virus in culture. In kind it is cell-based. As to conditions: Burkholderia humptydooensis, ATCCBAA2767, read-out: Minimum inhibitory concentration (MIC), B. humptydooensis ATCC BAA-2767.
A further experiment relates to P. aeruginosa ATCC 27853. As to the kind of experiment: microbe, parasite or virus in culture. Conditions: Pseudomonas aeruginosa, ATCC27853, read-out: Minimum inhibitory concentration, P. aeruginosa ATCC 27853. The experiment is classed as cell-based.
The next experiment has as its system P. aeruginosa CDC-0054. In words: microbe, parasite or virus in culture. In kind it is cell-based. As to conditions: Pseudomonas aeruginosa, CDC0054, read-out: Minimum inhibitory concentration, P. aeruginosa CDC-0054.
For another experiment, the system named is A. baumannii ATCC 17978. In words: microbe, parasite or virus in culture. The experiment is classed as cell-based. Conditions: Acinetobacter baumannii, ATCC17978, read-out: MIC, A. baumannii ATCC 17978.
The target of a further experiment is T1, A. baumannii PBP1a (Acinetobacter baumannii, UniProt A0ABX6CK30).
T1 sequence (A0ABX6CK30 1-851): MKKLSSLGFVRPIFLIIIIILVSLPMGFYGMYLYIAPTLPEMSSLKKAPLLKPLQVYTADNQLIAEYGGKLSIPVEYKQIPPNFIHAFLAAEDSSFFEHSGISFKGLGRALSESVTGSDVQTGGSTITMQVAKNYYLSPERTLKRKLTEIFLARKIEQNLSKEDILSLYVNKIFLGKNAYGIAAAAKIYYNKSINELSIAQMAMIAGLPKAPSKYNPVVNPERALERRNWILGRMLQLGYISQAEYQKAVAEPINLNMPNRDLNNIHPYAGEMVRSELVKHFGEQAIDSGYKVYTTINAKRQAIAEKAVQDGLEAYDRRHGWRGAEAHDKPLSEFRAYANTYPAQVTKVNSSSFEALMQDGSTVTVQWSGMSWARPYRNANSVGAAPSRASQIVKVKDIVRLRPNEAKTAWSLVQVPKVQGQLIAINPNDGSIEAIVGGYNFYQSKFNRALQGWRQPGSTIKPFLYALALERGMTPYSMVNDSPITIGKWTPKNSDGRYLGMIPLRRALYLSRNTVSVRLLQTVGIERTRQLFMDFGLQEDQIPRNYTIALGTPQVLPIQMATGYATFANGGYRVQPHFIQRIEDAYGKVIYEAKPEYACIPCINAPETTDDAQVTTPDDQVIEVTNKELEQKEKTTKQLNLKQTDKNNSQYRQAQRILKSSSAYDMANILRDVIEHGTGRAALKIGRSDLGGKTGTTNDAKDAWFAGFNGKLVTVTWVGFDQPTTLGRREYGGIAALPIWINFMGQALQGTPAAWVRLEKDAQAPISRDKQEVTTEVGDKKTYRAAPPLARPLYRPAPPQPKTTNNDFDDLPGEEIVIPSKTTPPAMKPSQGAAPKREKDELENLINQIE
As to the kind of experiment: Bocillin-FL competition binding via gel filtration, A. baumannii PBP1a. Conditions: competition binding assay using Bocillin-FL via gel filtration; read-out: A. baumannii PBP1a Potency. In short, it runs like this:
(§1)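 Enzyme was pre-incubated with rising inhibitor concentrations, then Bocillin-FL was added and incubated 15 minutes more. Bound probe was separated by gel filtration and fluorescence read. EC50 came from fitting fraction of PBP labelled versus inhibitor concentration to a Hill equation with ymin, ymax and n.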
Background: Size exclusion chromatography separates by hydrodynamic size, large species first.

Another experiment deals with A. baumannii PBP2 (Acinetobacter baumannii, UniProt D0C8Z9). In words: Bocillin-FL competition binding via gel filtration, A. baumannii PBP2. A digest of the protocol: as §1
A. baumannii PBP2, sequence (D0C8Z9 whole entry): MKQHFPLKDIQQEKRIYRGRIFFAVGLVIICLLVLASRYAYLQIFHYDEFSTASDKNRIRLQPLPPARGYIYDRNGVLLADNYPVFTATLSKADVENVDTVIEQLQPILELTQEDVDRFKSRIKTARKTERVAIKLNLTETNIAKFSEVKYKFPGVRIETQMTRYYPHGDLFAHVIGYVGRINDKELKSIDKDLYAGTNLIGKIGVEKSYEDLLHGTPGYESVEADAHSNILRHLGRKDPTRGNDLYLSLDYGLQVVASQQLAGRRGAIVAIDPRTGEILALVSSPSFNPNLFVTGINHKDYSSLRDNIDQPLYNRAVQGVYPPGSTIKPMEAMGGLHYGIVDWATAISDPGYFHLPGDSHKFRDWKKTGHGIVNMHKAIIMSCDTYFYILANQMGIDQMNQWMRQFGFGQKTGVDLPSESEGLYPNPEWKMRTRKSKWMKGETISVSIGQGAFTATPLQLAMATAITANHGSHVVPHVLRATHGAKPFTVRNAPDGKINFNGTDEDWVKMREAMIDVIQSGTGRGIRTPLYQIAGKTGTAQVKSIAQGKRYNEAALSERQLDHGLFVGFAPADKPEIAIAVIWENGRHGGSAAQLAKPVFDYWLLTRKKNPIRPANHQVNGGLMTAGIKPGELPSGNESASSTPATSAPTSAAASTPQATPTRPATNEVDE
The subject of a further experiment is A. baumannii ATCC 19606. As to the kind of experiment: microbe, parasite or virus in culture. The experiment is classed as cell-based. As to conditions: Acinetobacter baumannii, ATCC19606, read-out: MIC, A. baumannii ATCC 19606.
The next experiment deals with A. baumannii CDC-0045. In words: microbe, parasite or virus in culture. As to conditions: Acinetobacter baumannii, CDC0045, read-out: MIC, A. baumannii CDC-0045. In kind it is cell-based.
Another experiment concerns P. aeruginosa CDC-0110. As to the kind of experiment: microbe, parasite or virus in culture. The experiment is classed as cell-based. Conditions: Pseudomonas aeruginosa, CDC0110, read-out: Minimum inhibitory concentration, P. aeruginosa CDC-0110.

In brackets after ≈: the same amount, converted by molar mass.

On to `O=C(NCCCN1CCN(C(=O)NC(C(=O)N[C@H]2Cc3ccc(F)c(C(=O)O)c3OB2O)c2cc(F)c(O)c(O)c2Cl)C(=O)C1=O)c1ccc(F)c(O)c1` (stereo partly drawn) [Example 409, (3R)-3-(2-(2-chloro-5-fluoro-3,4-dihydroxyphenyl)-2-(4-(3-(4-fluoro-3-hydroxybenzamido)propyl)-2,3-dioxopiperazine-1-carboxamido)acetamido)-7-fluoro-2-hydroxy-3,4-dihydro-2H-benzo[e][1,2]oxaborinine-8-carboxylic acid], for which the MIC in the experiment on A. baumannii CDC-0083 is < 1 µg/mL; in [1] it was < 1 µg/mL; with A. baumannii 1258916, 2 to 4 µg/mL (≈ 2.57 to 5.14 µM); in the experiment with A. baumannii CDC-0036, 2 to 4 µg/mL (≈ 2.57 to 5.14 µM); in experiment [2] it was 8 to 16 µg/mL (≈ 10.3 to 20.6 µM); with P. aeruginosa ATCC 27853 it was < 1 µg/mL. Also, the MIC in the experiment on P. aeruginosa CDC-0054, in the experiment with A. baumannii ATCC 17978, in the experiment with A. baumannii ATCC 19606, in the experiment on A. baumannii CDC-0045 and in the experiment on P. aeruginosa CDC-0110 was < 1 µg/mL throughout. Besides, the EC50 at A. baumannii PBP1a and at A. baumannii PBP2 was < 10 µM throughout.

As to `O=C(NCCCN1CCN(C(=O)NC(C(=O)N[C@H]2Cc3ccc(F)c(C(=O)O)c3OB2O)c2cc(F)c(O)c(O)c2Cl)C(=O)C1=O)c1cc(O)cc(O)c1` (stereo partly drawn) [Example 423, (3R)-3-(2-(2-chloro-5-fluoro-3,4-dihydroxyphenyl)-2-(4-(3-(3,5-dihydroxybenzamido)propyl)-2,3-dioxopiperazine-1-carboxamido)acetamido)-7-fluoro-2-hydroxy-3,4-dihydro-2H-benzo[e][1,2]oxaborinine-8-carboxylic acid], the MIC is > 128 µg/mL with A. baumannii CDC-0083; < 1 µg/mL in experiment [1]; < 1 µg/mL in the experiment with A. baumannii 1258916; 2 to 4 µg/mL (≈ 2.58 to 5.16 µM) in the experiment with A. baumannii CDC-0036; < 1 µg/mL in experiment [2]; < 1 µg/mL with P. aeruginosa ATCC 27853. For the same compound, the MIC in the experiment on P. aeruginosa CDC-0054, in the experiment with A. baumannii ATCC 17978, in the experiment on A. baumannii ATCC 19606, in the experiment on A. baumannii CDC-0045 and with P. aeruginosa CDC-0110 was < 1 µg/mL throughout. Besides, the EC50 on A. baumannii PBP1a and on A. baumannii PBP2 was < 10 µM throughout.

In the case of `O=C(O)c1c(F)ccc2c1OB(O)[C@@H](NC(=O)C(NC(=O)N1CCN(C3CCN(C(=O)c4cccc(O)c4)CC3)C(=O)C1=O)c1cc(F)c(O)c(O)c1Cl)C2` (stereo partly drawn) [Example 293, (3R)-3-(2-(2-chloro-5-fluoro-3,4-dihydroxyphenyl)-2-(4-(1-(3-hydroxybenzoyl)piperidin-4-yl)-2,3-dioxopiperazine-1-carboxamido)acetamido)-7-fluoro-2-hydroxy-3,4-dihydro-2H-benzo[e][1,2]oxaborinine-8-carboxylic acid], the MIC is < 1 µg/mL with A. baumannii CDC-0083; < 1 µg/mL in [1]; < 1 µg/mL with A. baumannii 1258916; < 1 µg/mL in the experiment with A. baumannii CDC-0036; < 1 µg/mL in experiment [2]; 2 to 4 µg/mL (≈ 2.54 to 5.09 µM) in the experiment with P. aeruginosa ATCC 27853. In addition, the MIC with P. aeruginosa CDC-0054, with A. baumannii ATCC 17978, with A. baumannii ATCC 19606, in the experiment with A. baumannii CDC-0045 and in the experiment with P. aeruginosa CDC-0110 was < 1 µg/mL each time. Further, the EC50 on A. baumannii PBP1a and on A. baumannii PBP2 was 10 to 50 µM each time.

`O=C(NCCCN1CCN(C(=O)N[C@@H](C(=O)N[C@H]2Cc3ccc(F)c(C(=O)O)c3OB2O)c2cc(F)c(O)c(O)c2Cl)C(=O)C1=O)c1cc(F)c(O)cc1F` (single isomer, unassigned) [Example 473]: the MIC is > 128 µg/mL in the experiment on A. baumannii CDC-0083; < 1 µg/mL in experiment [1]; 2 to 4 µg/mL (≈ 2.51 to 5.03 µM) in the experiment on A. baumannii 1258916; 2 to 4 µg/mL (≈ 2.51 to 5.03 µM) with A. baumannii CDC-0036; < 1 µg/mL in experiment [2]; 2 to 4 µg/mL (≈ 2.51 to 5.03 µM) in the experiment with P. aeruginosa ATCC 27853. Also, the MIC in the experiment with P. aeruginosa CDC-0054, in the experiment with A. baumannii ATCC 17978, with A. baumannii ATCC 19606, in the experiment on A. baumannii CDC-0045 and with P. aeruginosa CDC-0110 was < 1 µg/mL throughout. The EC50 at A. baumannii PBP1a and at A. baumannii PBP2 was < 10 µM each time.
